According to publication PMC11879280, “Antimicrobial activity of peptoids against Metallo-β-lactamase-producing Klebsiella pneumoniae, Acinetobacter baumannii, Pseudomonas aeruginosa, and other WHO priority pathogens, including Candida auris” (Journal of Applied Microbiology, 2025):
Where two headings read alike, the source gives them in different places. Square brackets hold non-standard residues; d marks the D form. Peptide text beside a SMILES is read from it. Nspe = C[C@H](NCC(=O)O)c1ccccc1; NDecylGly = CCCCCCCCCCNCC(=O)O; Nlys = NCCCCNCC(=O)O

How the values were obtained:
A. baumannii 005 = tested on: A. baumannii 005
In short: (§1)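 Broth microdilution with 5 × 10^5 CFU/ml inoculum in cation-adjusted Mueller–Hinton broth for antibiotics or MHB for peptidomimetics; 16–20 h at 37°C, 120 rpm. MBC/MFC by plating on Trypticase Soya Agar with phosphatidylcholine and Tween 80; geometric mean MIC calculated across pathogens.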

S. aureus 38 = tested on: S. aureus 38
In short: as §1

P. aeruginosa 33 = tested on: P. aeruginosa 33
In short: as §1

A. baumannii ATCC 19 606 = tested on: A. baumannii ATCC 19 606
In short: as §1

K. pneumoniae JIE4212 = tested on: K. pneumoniae JIE4212
In short: as §1

P. aeruginosa AR-1270 = tested on: P. aeruginosa AR-1270
In short: as §1

En. cloacae 003 = tested on: En. cloacae 003
In short: as §1

K. pneumoniae JIE2713 = tested on: K. pneumoniae JIE2713
In short: as §1

P. aeruginosa 216 = tested on: P. aeruginosa 216
In short: as §1

En. cloacae 005 = tested on: En. cloacae 005
In short: as §1

E. coli 0010 = tested on: E. coli 0010
In short: as §1

[1] = tested on: Enteroc. faecalis NCTC 13 379
In short: as §1

K. pneumoniae JIE2709 = tested on: K. pneumoniae JIE2709
In short: as §1

E. coli 0011 = tested on: E. coli 0011
In short: as §1

S. aureus 117 = tested on: S. aureus 117
In short: as §1

A. baumannii 006 = tested on: A. baumannii 006
In short: as §1

S. aureus 105 = tested on: S. aureus 105
In short: as §1

E. coli 005 = tested on: E. coli 005
In short: as §1

E. coli 0015 = tested on: E. coli 0015
In short: as §1

A. baumannii 008 = tested on: A. baumannii 008
In short: as §1

S. aureus 04 = tested on: S. aureus 04
In short: as §1

En. cloacae 001 = tested on: En. cloacae 001
In short: as §1

A. baumannii 007 = tested on: A. baumannii 007
In short: as §1

Enterobacteriaceae = assay: Geometric mean MIC, therapeutic index and selectivity ratio, Enterobacteriaceae; assay type: cell-based; settings: Enterobacteriaceae (E. coli, K. pneumoniae, and E. aerogenes)
In short: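 Inoculum 5 × 10^5 CFU ml^−1 in CAMHB for antibiotics or MHB for peptidomimetics; incubated 37°C, 120 rpm, 16–20 h. Suspensions plated on Trypticase Soya Agar with phosphatidylcholine and Tween 80 for MBC/MFC. Geometric mean MIC computed across pathogens; therapeutic index calculated by formula.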

How did the MIC of peptidomimetics (A. baumannii 005; 005) turn out when `CCCCCCCCCCNCC(=O)N(CCCCN)CC(=O)N(CC(=O)N(CC(=O)N(CCCCN)CC(=O)N(CC(=O)N(CC(N)=O)[C@@H](C)c1ccccc1)[C@@H](C)c1ccccc1)[C@@H](C)c1ccccc1)[C@@H](C)c1ccccc1` [TM8] (H-[NDecylGly][Nlys][Nspe][Nspe][Nlys][Nspe][Nspe]-NH2) was run?
Its MIC of peptidomimetics is 7.0 µM.

And the MIC of peptidomimetics (A. baumannii 005; A. baumannii 005, MHB (melimine/Mel4 with 0.2% BSA, 0.01% acetic acid), mean MIC)?
Its MIC of peptidomimetics is 7.8 µg/mL.

And the MIC of peptidomimetics (S. aureus 38; 38)?
Its MIC of peptidomimetics is 3.5 µM.

And the MIC of peptidomimetics (S. aureus 38; S. aureus 38, MHB (melimine/Mel4 with 0.2% BSA, 0.01% acetic acid), mean MIC)?
Its MIC of peptidomimetics is 3.9 µg/mL.

And the MIC of peptidomimetics (P. aeruginosa 33; 33)?
The MIC of peptidomimetics was 3.5 µM.

What about the MIC of peptidomimetics (P. aeruginosa 33; P. aeruginosa 33, MHB (melimine/Mel4 with 0.2% BSA, 0.01% acetic acid), mean MIC) of the same molecule?
The MIC of peptidomimetics was 3.9 µg/mL.

And the MIC of peptidomimetics (A. baumannii ATCC 19 606; A. baumannii ATCC 19 606, MHB (melimine/Mel4 with 0.2% BSA, 0.01% acetic acid), mean MIC)?
Its MIC of peptidomimetics is 3.9 µg/mL.

And the MIC of peptidomimetics (A. baumannii ATCC 19 606; ATCC 19)?
The MIC of peptidomimetics was 3.5 µM.

What about the MIC of peptidomimetics (K. pneumoniae JIE4212; JIE4212) of the same molecule?
Its MIC of peptidomimetics is 7.0 µM.

And the MIC of peptidomimetics (K. pneumoniae JIE4212; K. pneumoniae JIE4212, MHB (melimine/Mel4 with 0.2% BSA, 0.01% acetic acid), mean MIC)?
The MIC of peptidomimetics was 7.8 µg/mL.

And the MIC of peptidomimetics (P. aeruginosa AR-1270; AR-1270)?
Its MIC of peptidomimetics is 14.0 µM.

And the MIC of peptidomimetics (P. aeruginosa AR-1270; P. aeruginosa AR-1270, MHB (melimine/Mel4 with 0.2% BSA, 0.01% acetic acid), mean MIC)?
The MIC of peptidomimetics was 15.6 µg/mL.

What about the MIC of peptidomimetics (En. cloacae 003) of the same molecule?
The MIC of peptidomimetics was 7.0 µM.

What about the MIC of peptidomimetics (En. cloacae 003; En. cloacae 003, MHB (melimine/Mel4 with 0.2% BSA, 0.01% acetic acid), mean MIC) of the same molecule?
Its MIC of peptidomimetics is 7.8 µg/mL.

And the MIC of peptidomimetics (K. pneumoniae JIE2713; JIE2713)?
Its MIC of peptidomimetics is 14.0 µM.

What about the MIC of peptidomimetics (K. pneumoniae JIE2713; K. pneumoniae JIE2713, MHB (melimine/Mel4 with 0.2% BSA, 0.01% acetic acid), mean MIC) of the same molecule?
Its MIC of peptidomimetics is 15.6 µg/mL.

What about the MIC of peptidomimetics (P. aeruginosa 216; 216) of the same molecule?
Its MIC of peptidomimetics is 7.0 µM.

And the MIC of peptidomimetics (P. aeruginosa 216; P. aeruginosa 216, MHB (melimine/Mel4 with 0.2% BSA, 0.01% acetic acid), mean MIC)?
Its MIC of peptidomimetics is 7.8 µg/mL.

What about the MIC of peptidomimetics (En. cloacae 005) of the same molecule?
Its MIC of peptidomimetics is 14.0 µM.

And the MIC of peptidomimetics (En. cloacae 005; En. cloacae 005, MHB (melimine/Mel4 with 0.2% BSA, 0.01% acetic acid), mean MIC)?
Its MIC of peptidomimetics is 15.6 µg/mL.

And the MIC of peptidomimetics (E. coli 0010; 0010)?
Its MIC of peptidomimetics is 14.0 µM.

And the MIC of peptidomimetics (E. coli 0010; E. coli 0010, MHB (melimine/Mel4 with 0.2% BSA, 0.01% acetic acid), mean MIC)?
Its MIC of peptidomimetics is 15.6 µg/mL.

And the MIC of peptidomimetics ([1]; Enteroc. faecalis NCTC 13 379, MHB (melimine/Mel4 with 0.2% BSA, 0.01% acetic acid), mean MIC)?
The MIC of peptidomimetics was 7.8 µg/mL.

What about the MIC of peptidomimetics ([1]; NCTC 13) of the same molecule?
Its MIC of peptidomimetics is 7.0 µM.

What about the MIC of peptidomimetics (K. pneumoniae JIE2709; JIE2709) of the same molecule?
Its MIC of peptidomimetics is 14.0 µM.

What about the MIC of peptidomimetics (K. pneumoniae JIE2709; K. pneumoniae JIE2709, MHB (melimine/Mel4 with 0.2% BSA, 0.01% acetic acid), mean MIC) of the same molecule?
The MIC of peptidomimetics was 15.6 µg/mL.

And the MIC of peptidomimetics (E. coli 0011; 0011)?
The MIC of peptidomimetics was 14.0 µM.

What about the MIC of peptidomimetics (E. coli 0011; E. coli 0011, MHB (melimine/Mel4 with 0.2% BSA, 0.01% acetic acid), mean MIC) of the same molecule?
The MIC of peptidomimetics was 15.6 µg/mL.

And the MIC of peptidomimetics (S. aureus 117; 117)?
The MIC of peptidomimetics was 3.5 µM.

What about the MIC of peptidomimetics (S. aureus 117; S. aureus 117, MHB (melimine/Mel4 with 0.2% BSA, 0.01% acetic acid), mean MIC) of the same molecule?
The MIC of peptidomimetics was 3.9 µg/mL.

What about the MIC of peptidomimetics (A. baumannii 006; 006) of the same molecule?
Its MIC of peptidomimetics is 3.5 µM.

And the MIC of peptidomimetics (A. baumannii 006; A. baumannii 006, MHB (melimine/Mel4 with 0.2% BSA, 0.01% acetic acid), mean MIC)?
Its MIC of peptidomimetics is 3.9 µg/mL.

What about the MIC of peptidomimetics (S. aureus 105; 105) of the same molecule?
The MIC of peptidomimetics was 3.5 µM.

And the MIC of peptidomimetics (S. aureus 105; S. aureus 105, MHB (melimine/Mel4 with 0.2% BSA, 0.01% acetic acid), mean MIC)?
Its MIC of peptidomimetics is 3.9 µg/mL.

What about the MIC of peptidomimetics (E. coli 005; 005) of the same molecule?
The MIC of peptidomimetics was 7.0 µM.

What about the MIC of peptidomimetics (E. coli 005; E. coli 005, MHB (melimine/Mel4 with 0.2% BSA, 0.01% acetic acid), mean MIC) of the same molecule?
Its MIC of peptidomimetics is 7.8 µg/mL.

And the MIC of peptidomimetics (E. coli 0015; 0015)?
Its MIC of peptidomimetics is 7.0 µM.

What about the MIC of peptidomimetics (E. coli 0015; E. coli 0015, MHB (melimine/Mel4 with 0.2% BSA, 0.01% acetic acid), mean MIC) of the same molecule?
The MIC of peptidomimetics was 7.8 µg/mL.

And the MIC of peptidomimetics (A. baumannii 008; 008)?
Its MIC of peptidomimetics is 7.0 µM.

And the MIC of peptidomimetics (A. baumannii 008; A. baumannii 008, MHB (melimine/Mel4 with 0.2% BSA, 0.01% acetic acid), mean MIC)?
The MIC of peptidomimetics was 7.8 µg/mL.

What about the MIC of peptidomimetics (S. aureus 04; 04) of the same molecule?
Its MIC of peptidomimetics is 3.5 µM.

What about the MIC of peptidomimetics (S. aureus 04; S. aureus 004, MHB (melimine/Mel4 with 0.2% BSA, 0.01% acetic acid), mean MIC) of the same molecule?
Its MIC of peptidomimetics is 3.9 µg/mL.

What about the MIC of peptidomimetics (En. cloacae 001) of the same molecule?
Its MIC of peptidomimetics is 7.0 µM.

And the MIC of peptidomimetics (En. cloacae 001; En. cloacae 001, MHB (melimine/Mel4 with 0.2% BSA, 0.01% acetic acid), mean MIC)?
The MIC of peptidomimetics was 7.8 µg/mL.

What about the MIC of peptidomimetics (A. baumannii 007; 007) of the same molecule?
The MIC of peptidomimetics was 3.5 µM.

And the MIC of peptidomimetics (A. baumannii 007; A. baumannii 007, MHB (melimine/Mel4 with 0.2% BSA, 0.01% acetic acid), mean MIC)?
Its MIC of peptidomimetics is 3.9 µg/mL.

And the “Geometric mean MICE” value (Enterobacteriaceae)?
Its value is 11.0 µg/mL.
